According to patent publication US4562199A, “Imidazole derivatives, compositions and use” (priority 1983, dated 1985):
Where a name gives a salt, the structure may show the parent alone.

Biological target: T1, Thromboxane A2 Synthetase (Equus caballus, UniProt A0A9L0T8T9)
T1 construct: [1-14C]arachidonic acid substrate, TXB2 by TLC
T1 sequence (A0A9L0T8T9 2-534): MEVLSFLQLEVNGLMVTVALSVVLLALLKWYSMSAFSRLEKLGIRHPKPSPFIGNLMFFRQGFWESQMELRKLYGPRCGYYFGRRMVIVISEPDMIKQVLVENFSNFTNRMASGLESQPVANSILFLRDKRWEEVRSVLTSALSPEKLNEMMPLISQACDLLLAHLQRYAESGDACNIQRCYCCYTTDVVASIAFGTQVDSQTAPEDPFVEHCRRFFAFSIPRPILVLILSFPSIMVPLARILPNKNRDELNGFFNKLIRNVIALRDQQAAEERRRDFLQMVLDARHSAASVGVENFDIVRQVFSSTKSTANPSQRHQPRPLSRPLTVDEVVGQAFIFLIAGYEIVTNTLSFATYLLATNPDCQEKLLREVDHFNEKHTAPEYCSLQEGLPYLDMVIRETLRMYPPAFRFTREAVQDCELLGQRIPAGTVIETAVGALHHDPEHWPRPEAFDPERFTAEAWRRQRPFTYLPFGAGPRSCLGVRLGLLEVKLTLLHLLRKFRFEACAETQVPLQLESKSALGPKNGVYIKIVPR
Assay: Determination of Thromboxane A2 Synthetase Inhibitory Activity
Assay type: biochemical
Settings: lysed platelets from horse PRP; [1-14C]-arachidonic acid; 3 min at 37° C.; Tris buffer pH 7.5; read-out: ED50 (concentration of active compound required to reduce the enzyme activity by 50%) (converted)
Protocol: The active compound was dissolved in a suitable solvent at a concentration of 5 mg/ml, and 20 μl added to 0.8 ml of 100 mM Tris buffer (pH 7.5).
The platelets from 5 ml of horse PRP were centrifuged and resuspended in 100 μl of Tris buffer. After lysis by sonication or freeze thawing, the platelet suspension was added to the solution of active compound and equilibrated for 5 min at room temperature. Then 300 ng (50 nCi) of [1-^14 -C]-arachidonic acid, dissolved in 100 μl Tris buffer, was added and the mixture incubated for 3 min at 37° C.
The reaction was stopped with 50 μl 2N HCl and the product extracted with 1.5 volumes ethyl acetate by whirling for 30 seconds. 1 ml saturated NaCl was added to the aqueous phase to prevent emulsion formation. The organic layer was removed, dried under N2 and the products redissolved in 50 μl chloroform/methanol mixture for quantitative spotting onto a TLC plate, and subsequent analysis.
The plate was developed in chloroform, methanol, acetic acid, water (90:8:1:0.8), dried and then visualised by autoradiography for 2-3 days.
The concentration of active compound required to reduce the enzyme activity by 50% (ED50) was established.

Row | IC50 | SMILES
1 | 1720 nM | CCOC(=O)/C=C/c1ccc(Cn2ccnc2)c(Cl)c1 [Example 2, Ethyl (E)-3-[3-chloro-4-(imidazol-1-ylmethyl)phenyl]prop-2-enoate]
2 | 24200 nM | O=C(O)c1ccc(Cn2ccnc2)c(Cl)c1 [Example 1, 1-(4-Carboxy-2-chlorobenzyl)imidazole hydrochloride]
3 | 167 nM | O=C(O)/C=C/c1ccc(Cn2ccnc2)c(Cl)c1 [Example 3, (E)-3-[3-Chloro-4-(imidazol-1-ylmethyl)phenyl]prop-2-enoic acid hydrochloride]
4 | 41.5 nM | O=C(O)C=Cc1ccc(Cn2ccnc2)c(Br)c1 [Example 6, 3-[3-Bromo-4-(imidazol-1-ylmethyl)phenyl]prop-2-enoic acid hydrochloride hydrate]

Continued, compound first:

Row | SMILES | IC50
5 | O=C(O)c1ccc(C=CCn2ccnc2)cc1Cl [Example 10, 1-[3-(4-Carboxy-3-chlorophenyl)prop-2-enyl]imidazole hydrochloride hemihydrate] | 1330 nM
6 | O=C(O)CCc1ccc(Cn2ccnc2)c(Cl)c1 [Example 4, 3-[3-Chloro-4-(imidazol-1-ylmethyl)phenyl]propanoic acid hydrochloride] | 266 nM
